This is an account of results in patent US9701689B2, “Substituted pyridines and pyridazines as CCR10 receptor inhibitors” (KYOWA HAKKO KIRIN CO., LTD., priority 2012, dated 2017).

The target of this experiment is T1, human CCR10 (Homo sapiens, UniProt P46092).
T1 construct: expressed in transfected cells; host or cells: KJMGER8 cells (Namalwa cell-derived line), beta-estradiol-induced; hCCR10G16 cells
T1 sequence (P46092 1-362): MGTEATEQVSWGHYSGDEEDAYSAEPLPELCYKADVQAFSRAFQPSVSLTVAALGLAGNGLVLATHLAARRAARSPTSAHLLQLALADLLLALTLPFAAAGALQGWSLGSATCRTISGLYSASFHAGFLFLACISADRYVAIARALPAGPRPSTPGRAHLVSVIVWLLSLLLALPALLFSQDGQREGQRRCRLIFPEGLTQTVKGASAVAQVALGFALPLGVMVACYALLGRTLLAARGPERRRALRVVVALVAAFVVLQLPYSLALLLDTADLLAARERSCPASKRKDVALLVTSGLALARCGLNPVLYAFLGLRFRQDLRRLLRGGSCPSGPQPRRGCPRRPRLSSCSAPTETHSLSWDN
As to the kind of experiment: CCR10 antagonistic effect: calcium assay of human CCR10 (CTACK-induced increase of intracellular calcium in hCCR10G16 cells). To be noted: at a concentration of not more than 1000 nmol/L; human CCR10-expressing hCCR10G16 cells, 300 nmol/L CTACK added; read-out: inhibition of increase in the calcium ion concentration. It counts as cell-based. The procedure, abridged:
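KJMGER8-derived hCCR10G16 cells (CCR10 plus Gα16, induced 24 h with 10 nmol/L β-estradiol), Fluo-3 loaded, preincubated with compound 30 min at 37 °C. Stimulated with CTACK (300 nmol/L solution before addition); calcium read ~5 min by FDSS, max−min fluorescence; % inhibition vs control.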

As for `Cc1ccc(Nc2cc(S(N)(=O)=O)ncc2C(=O)N2CCC(c3ccc(F)cc3)CC2)cc1` [Compound 98, 5-[4-(4-fluorophenyl)piperidine-1-carbonyl]-4-(p-tolylamino)pyridine-2-sulfonamide], the inhibition at up to 1 µM was no less than 50%.

For `COc1cc(F)ccc1Nc1cc(S(N)(=O)=O)ncc1C(=O)N1CCC(c2ccc(F)cc2)CC1` [Compound 99, 4-(4-fluoro-2-methoxyphenylamino)-5-[4-(4-fluorophenyl)piperidine-1-carbonyl]pyridine-2-sulfonamide], the inhibition at up to 1 µM is no less than 50%.

`Cc1cc(C(F)(F)F)ccc1Nc1cc(S(N)(=O)=O)ncc1C(=O)N1CCC(c2ccc(F)cc2)CC1` [Compound 100, 5-[4-(4-fluorophenyl)piperidine-1-carbonyl]-4-[2-methyl-4-(trifluoromethyl)phenylamino]pyridine-2-sulfonamide]: the inhibition at up to 1 µM was no less than 50%.

Take `NS(=O)(=O)c1cc(Nc2ccccc2F)c(C(=O)N2CCC(c3ccc(F)cc3)CC2)cn1` [Compound 102, 5-[4-(4-fluorophenyl)piperidine-1-carbonyl]-4-(2-fluorophenylamino)pyridine-2-sulfonamide]: the inhibition at up to 1 µM is no less than 50%.

For `NS(=O)(=O)c1cc(Nc2cccc(Cl)c2)c(C(=O)N2CCC(c3ccc(F)cc3)CC2)cn1` [Compound 103, 4-(3-chlorophenylamino)-5-[4-(4-fluorophenyl)piperidine-1-carbonyl]pyridine-2-sulfonamide], the inhibition at up to 1 µM was no less than 50%.

On to `COc1cc(C)c(Nc2cc(S(N)(=O)=O)ncc2C(=O)N2CCC(c3ccc(F)cc3)CC2)cc1Cl` [Compound 104, 4-(5-chloro-4-methoxy-2-methylphenylamino)-5-[4-(4-fluorophenyl)piperidine-1-carbonyl]pyridine-2-sulfonamide], for which the inhibition at up to 1 µM was no less than 50%.

As for `Cc1cc(O)c(Cl)cc1Nc1cc(S(N)(=O)=O)ncc1C(=O)N1CCC(c2ccc(F)cc2)CC1` [Compound 105, 4-(5-chloro-4-hydroxy-2-methylphenylamino)-5-[4-(4-fluorophenyl)piperidine-1-carbonyl]pyridine-2-sulfonamide], the inhibition at up to 1 µM was no less than 50%.

For the compound `NS(=O)(=O)c1cc(Nc2ccc(OC(F)F)cc2)c(C(=O)N2CCC(c3ccc(F)cc3)CC2)cn1` [Compound 106, 4-[4-(difluoromethoxy)phenylamino]-5-[4-(4-fluorophenyl)piperidine-1-carbonyl]pyridine-2-sulfonamide], the inhibition at up to 1 µM was no less than 50%.

For `Cc1ccc(Nc2cc(S(N)(=O)=O)ncc2C(=O)N2CCC(c3ccc(F)cc3)CC2)cc1C` [Compound 107, 4-(3,4-dimethylphenylamino)-5-[4-(4-fluorophenyl)piperidine-1-carbonyl]pyridine-2-sulfonamide], the inhibition at up to 1 µM is no less than 50%.

With `Cc1ccc(Cl)cc1Nc1cc(S(N)(=O)=O)ncc1C(=O)N1CCC(c2ccc(F)cc2)CC1` [Compound 109, 4-(5-chloro-2-methylphenylamino)-5-[4-(4-fluorophenyl)piperidine-1-carbonyl]pyridine-2-sulfonamide], the inhibition at up to 1 µM is no less than 50%.

With `Cc1cc(C)cc(Nc2cc(S(N)(=O)=O)ncc2C(=O)N2CCC(c3ccc(F)cc3)CC2)c1` [Compound 110, 4-(3,5-dimethylphenylamino)-5-[4-(4-fluorophenyl)piperidine-1-carbonyl]pyridine-2-sulfonamide], the inhibition at up to 1 µM is no less than 50%.

On to `CNS(=O)(=O)c1cc(Nc2ccc(F)cc2C)c(C(=O)N2CCC(c3ccc(F)cc3)CC2)cn1` [Compound 111, 4-(4-fluoro-2-methylphenylamino)-5-[4-(4-fluorophenyl)piperidine-1-carbonyl]-N-methylpyridine-2-sulfonamide], for which the inhibition at up to 1 µM is no less than 50%.

In the case of `COCCNS(=O)(=O)c1cc(Nc2ccc(F)cc2C)c(C(=O)N2CCC(c3ccc(F)cc3)CC2)cn1` [Compound 112, 4-(4-fluoro-2-methylphenylamino)-5-[4-(4-fluorophenyl)piperidine-1-carbonyl]-N-(2-methoxyethyl)pyridine-2-sulfonamide], the inhibition at up to 1 µM is no less than 50%.

As to `COC(=O)C1CCCN1S(=O)(=O)c1cc(Nc2ccc(F)cc2C)c(C(=O)N2CCC(c3ccc(F)cc3)CC2)cn1` (stereo not shown) [Compound 116, methyl 1-{4-(4-fluoro-2-methylphenylamino)-5-[4-(4-fluorophenyl)piperidine-1-carbonyl]pyridin-2-ylsulfonyl}pyrrolidine-2-carboxylate], the inhibition at up to 1 µM is no less than 50%.

As for `CNC(=O)C1CCCN1S(=O)(=O)c1cc(Nc2ccc(F)cc2C)c(C(=O)N2CCC(c3ccc(F)cc3)CC2)cn1` (stereo not shown) [Compound 117, 1-{4-(4-fluoro-2-methylphenylamino)-5-[4-(4-fluorophenyl)piperidine-1-carbonyl]pyridin-2-ylsulfonyl}-N-methylpyrrolidine-2-carboxamide], the inhibition at up to 1 µM was no less than 50%.

Regarding `Cc1cc(F)ccc1Nc1cc(S(=O)(=O)N2CCCC2)ncc1C(=O)N1CCC(c2ccc(F)cc2)CC1` [Compound 119, [4-(4-fluoro-2-methylphenylamino)-6-(pyrrolidin-1-ylsulfonyl)pyridin-3-yl][4-(4-fluorophenyl)piperidin-1-yl]methanone], the inhibition at up to 1 µM is no less than 50%.

`Cc1cc(F)ccc1Nc1cc(S(=O)(=O)N2CCCC2C(=O)O)ncc1C(=O)N1CCC(c2ccc(F)cc2)CC1` (stereo not shown) [Compound 120, 1-{4-(4-fluoro-2-methylphenylamino)-5-[4-(4-fluorophenyl)piperidine-1-carbonyl]pyridin-2-ylsulfonyl}pyrrolidine-2-carboxylic acid]: the inhibition at up to 1 µM is no less than 50%.

As to `Cc1cc(F)ccc1Nc1cc(S(=O)(=O)N2CCCCC2)ncc1C(=O)N1CCC(c2ccc(F)cc2)CC1` [Compound 121, [4-(4-fluoro-2-methylphenylamino)-6-(piperidin-1-ylsulfonyl)pyridin-3-yl][4-(4-fluorophenyl)piperidin-1-yl]methanone], the inhibition at up to 1 µM was no less than 50%.

Turning to `Cc1cc(F)ccc1Nc1cc(S(=O)(=O)N2CCOCC2)ncc1C(=O)N1CCC(c2ccc(F)cc2)CC1` [Compound 122, [4-(4-fluoro-2-methylphenylamino)-6-(morpholinosulfonyl)pyridin-3-yl][4-(4-fluorophenyl)piperidin-1-yl]methanone], the inhibition at up to 1 µM was no less than 50%.

In the case of `Cc1cc(F)ccc1Nc1cc(S(=O)(=O)N2CCCC2C(N)=O)ncc1C(=O)N1CCC(c2ccc(F)cc2)CC1` (stereo not shown) [Compound 123, 1-{4-(4-fluoro-2-methylphenylamino)-5-[4-(4-fluorophenyl)piperidine-1-carbonyl]pyridin-2-ylsulfonyl}pyrrolidine-2-carboxamide], the inhibition at up to 1 µM was no less than 50%.

Take `CC(=O)N1CCN(S(=O)(=O)c2cc(Nc3ccc(F)cc3C)c(C(=O)N3CCC(c4ccc(F)cc4)CC3)cn2)CC1` [Compound 124, 1-{4-{4-(4-fluoro-2-methylphenylamino)-5-[4-(4-fluorophenyl)piperidine-1-carbonyl]pyridin-2-ylsulfonyl}piperazin-1-yl}ethanone]: the inhibition at up to 1 µM was no less than 50%.

`Cc1cc(F)ccc1Nc1cc(S(=O)(=O)N(C)C)ncc1C(=O)N1CCC(c2ccc(F)cc2)CC1` [Compound 125, 4-(4-fluoro-2-methylphenylamino)-5-[4-(4-fluorophenyl)piperidine-1-carbonyl]-N,N-dimethylpyridine-2-sulfonamide]: the inhibition at up to 1 µM was no less than 50%.
